# Assay results from ChEMBL document CHEMBL4673187, “Recent developments of small molecule gamma-secretase modulators for Alzheimer''s disease” (RSC Med Chem, 2020).
# Columns and labels:
# Gamma-secretase [1] = experiment: Modulation of gamma-secretase in human H4 cells expressing human wild type APP751 assessed as reduction in amyloid beta42 level incubated for 17 hrs by ELISA; type: cell-based
# [2] = In vivo modulation of gamma secretase in CF1 mouse assessed as reduction in brain amyloid beta40 level at 100 mg/kg, po measured after 4 hrs by ELISA relative to control; type: functional; parameters: scale not given: the % may be the effect or the level left
# [3] = Modulation of gamma-secretase in CHO cells expressing APP V717F assessed as increase in amyloid beta38 level; type: cell-based; settings: Cricetulus griseus
# [4] = In vivo modulation of gamma secretase in CF1 mouse assessed as increase in brain amyloid beta38 level at 100 mg/kg, po measured after 4 hrs by ELISA relative to control; type: functional
# [5] = In vivo modulation of gamma secretase in CF1 mouse assessed as reduction in plasma amyloid beta42 level at 100 mg/kg, po measured after 4 hrs by ELISA relative to control; type: functional; parameters: scale not given: the % may be the effect or the level left
# Gamma-secretase [6] = experiment: Modulation of gamma-secretase in human H4 cells expressing human wild type APP751 assessed as increase in amyloid beta38 level incubated for 17 hrs by ELISA; type: cell-based
# [7] = In vivo modulation of gamma secretase in transgenic Tg2576 mouse assessed as reduction in insoluble amyloid beta42 level at 60 mg/kg, po administered once daily for 65 days by ELISA relative to control; type: functional; parameters: scale not given: the % may be the effect or the level left; settings: time 65 day
# [8] = In vivo modulation of gamma secretase in CF1 mouse assessed as reduction in amyloid beta42 level at 10 mg/kg, po administered as single dose measured after 4 hrs by ELISA relative to control; type: functional; parameters: scale not given: the % may be the effect or the level left
# [9] = Ratio of drug level in CF1 mouse brain to plasma at 3 to 100 mg/kg, po measured after 4 hrs by liquid chromatography and tandem mass spectrometry; type: ADME, organism-based; settings: dose 3-100 mg/kg, read-out: BPR
# [10] = In vivo modulation of gamma secretase in CF1 mouse assessed as increase in plasma amyloid beta38 level at 100 mg/kg, po measured after 4 hrs by ELISA relative to control; type: functional
# [11] = In vivo modulation of gamma secretase in CF1 mouse assessed as reduction in plasma amyloid beta40 level at 100 mg/kg, po measured after 4 hrs by ELISA relative to control; type: functional; parameters: scale not given: the % may be the effect or the level left
# [12] = In vivo modulation of gamma secretase in transgenic Tg2576 mouse assessed as reduction in soluble amyloid beta42 level at 60 mg/kg, po administered once daily for 65 days by ELISA relative to control; type: functional; parameters: scale not given: the % may be the effect or the level left; settings: time 65 day
# [13] = In vivo modulation of gamma secretase in CF1 mouse assessed as reduction in brain amyloid beta42 level at 100 mg/kg, po measured after 4 hrs by ELISA relative to control; type: functional; parameters: scale not given: the % may be the effect or the level left
# [14] = Maximum concentration of drug in po dosed CF1 mouse brain and measured at 4 hrs by liquid chromatography and tandem mass spectrometry; type: ADME, organism-based; parameters: route oral, time 4 hrs
# [15] = Modulation of gamma-secretase in CHO cells expressing APP V717F assessed as reduction in amyloid beta42 level; type: cell-based; settings: Cricetulus griseus
# [16] = In vivo modulation of gamma secretase in CF1 mouse assessed as increase in amyloid beta38 level at 10 mg/kg, po administered as single dose measured after 16 hrs by ELISA relative to control; type: functional
# [17] = Lipophilicity, logD of the compound; type: physicochemical; settings: octanol/water
# [18] = In vivo modulation of gamma secretase in C57BL/6 mouse assessed as reduction in amyloid beta42 level at 30 mg/kg, po measured at 3 hrs relative to control; type: functional; parameters: scale not given: the % may be the effect or the level left
# [19] = Inhibition of notch signalling (unknown origin); parameters: species or system Homo sapiens
# [20] = In vivo modulation of gamma secretase in C57BL/6 mouse assessed as reduction in amyloid beta42 level at 10 mg/kg, po measured at 3 hrs relative to control; type: functional; parameters: scale not given: the % may be the effect or the level left
# [21] = Modulation of gamma secretase in Wistar rat fetal brain-derived neuronal cell incubated for 3 days by ELISA; settings: 72 h
# Gamma-secretase [22] = experiment: Modulation of gamma-secretase in human H4 cells expressing human APP assessed as reduction in amyloid beta42 level incubated for 22 hrs; type: cell-based
# [23] = In vivo modulation of gamma secretase in transgenic Tg2576 C57BL/6 mouse assessed as reduction in amyloid beta42 level at 30 mg/kg, po administered as single dose measured after 4 hrs by ELISA relative to control; type: functional; parameters: scale not given: the % may be the effect or the level left
# [24] = In vivo modulation of gamma secretase in transgenic Tg2576 C57BL/6 mouse assessed as reduction in amyloid beta42 level at 10 mg/kg, po administered as single dose measured after 4 hrs by ELISA relative to control; type: functional; parameters: scale not given: the % may be the effect or the level left
smiles,measurement,setting,value
CC1CCN([C@H](c2ccc(F)cc2)c2ccc([C@@H](C)C(=O)O)cc2-c2ccc(C(F)(F)F)cc2)CC1,IC50,Gamma-secretase [1],64 nM
same,Activity,[2],16%
same,EC50,[3],150 nM
same,Activity,[4],98%
same,Activity,[5],45%
same,EC50,Gamma-secretase [6],146 nM
same,Activity,[7],80%
same,Activity,[8],40%
same,Kp at 4 h,[9],0.8
same,Activity,[10],82%
same,Activity,[11],25%
same,Activity,[12],50%
same,Activity,[13],60%
same,Cmax,[14],7.5 µM
same,IC50,[15],170 nM
same,Activity,[16],50%
COc1cc(-c2nnc3n2CCCC3(Cc2ccc(F)c(F)c2)C(=O)NCC(F)(F)F)ccc1-c1cnc(C)o1 (stereo not given),logD,[17],3
same,Activity,[18],4%
COc1cc(-c2nnc3n2CCC[C@@]3(Oc2cc(F)c(F)c(F)c2)C(C)(C)O)ccc1-c1cnc(C)o1,logD,[17],3.2
COc1cc(-c2nnc3n2CCCC32OCc3c(cccc3C(F)(F)F)N(CC(F)(F)F)C2=O)ccc1-c1cnc(C)o1 (stereo not given),logD,[17],2.9
COc1cc(-c2nnc3n2CCC[C@]3(Oc2cc(F)c(F)c(F)c2)C(C)(C)O)ccc1-c1cnc(C)o1,IC50,[19],≥ 10000 nM
same,logD,[17],3.2
same,Activity,[20],44%
COc1cc(-c2nnc3n2CCCC3(Oc2ccc(F)c(Cl)c2)C(C)(C)O)ccc1-c1cnc(C)o1 (stereo not given),logD,[17],3.2
COc1cc(-c2nnc3n2CCCC3c2ccc(Cl)c(Cl)c2)ccc1-c1cnc(C)o1 (stereo not given),logD,[17],3.2
COc1cc(/C=C2\CCCN([C@@H](C)c3ccc(F)cc3)C2=O)ccc1-n1cnc(C)c1,IC50,[21],93 nM
COc1cc(-c2nnc3n2CCCC32OCc3c(Cl)cccc3N(CC(F)(F)F)C2=O)ccc1-c1cnc(C)o1 (stereo not given),logD,[17],2.8
Cc1nsc(N2CCC(Nc3nc4c(-c5ccc(F)c(F)c5F)cccn4n3)C(F)(F)C2)n1 (stereo not given),IC50,Gamma-secretase [22],143 nM
O=C(O)[C@H](CC1CCC1)c1cc(Cl)c(OCC(F)(F)F)c(-c2ccc(C(F)(F)F)cc2)c1,Activity,[23],38%
same,Activity,[24],22%
